# Measured values taken from publication PMC9085577, “Discovery of a Potent and Orally Active Dual GPBAR1/CysLT1R Modulator for the Treatment of Metabolic Fatty Liver Disease” (Frontiers in Pharmacology, 2022).
# Test system: liver transcriptome
# Experiment: AmpliSeq liver transcriptome of HFD-F mice
# Assay type: in vivo
# Settings: liver
# Source text: C57BL/6J male mice were fed a high fat diet (HFD) containing 59 KJ% fat plus 1% cholesterol, w/o sugar (ssniff ® EF R/M acc. D12330 mod. 22,7 ME/kg) and fructose (HFD-F) in drinking water (42 g/L), or normal chow diet for 61 days. Food intake was estimated as the difference of weight between the offered and the remnant amount of food at 3-days intervals. The food was provided as pressed pellets and the residual spillage was not considered. After 7 days, HFD-F mice were randomized to receive HFD-F alone or in combination with compound 2 (30 mg/kg/day) by gavage until the end of the experiment. Doses of each agent were chosen according to previously published data. Mice were housed under controlled temperature (22°C) and photoperiods (12:12-h light/dark cycle), allowed unrestricted access to standard mouse chow and tap water. The experimental protocol was approved by the Animal Care and Use Committee of the University of Perugia and by the Italian Minister of Health and Istituto Superiore di Sanità (Italy) and was in agreement with the European guidelines for use of experimental animals (permission n. 583/2017-PR). The general health of the animals was monitored daily by the Veterinarian in the animal facility. At the day of sacrifice, fed mice were deeply anesthetized with a mixture of tiletamine hypochloride and zolazepam hypochloride/xylazine at a dose of 50/5 mg/kg and sacrificed before 12 a.m.
# High-quality RNA was extracted from mice livers, using the Direct-zol™ RNA MiniPrep w/Zymo-Spin™ IIC Columns (Zymo Research, Irvine, CA) according to the manufacturer’s instructions. RNA quality and quantity were assessed with the Qubit® RNA HS Assay Kit and a Qubit 3.0 fluorometer (Invitrogen, Carlsbad, CA) followed by agarose gel electrophoresis. Libraries were generated using the Ion AmpliSeq™ Transcriptome Mouse Gene Expression Core Panel and Chef-Ready Kit (Comprehensive evaluation of AmpliSeq transcriptome, a whole transcriptome RNA sequencing methodology) (Thermo Fisher Scientific, Waltham, MA). Briefly, 10 ng of RNA was reverse transcribed with SuperScript™ Vilo™ cDNA Synthesis Kit (Thermo Fisher Scientific, Waltham, MA) before library preparation on the Ion Chef™ instrument (Thermo Fisher Scientific, Waltham, MA). The resulting cDNA was amplified to prepare barcoded libraries using the Ion Code™ PCR Plate, and the Ion AmpliSeq™ Transcriptome Mouse Gene Expression Core Panel (Thermo Fisher Scientific, Waltham, MA), Chef-Ready Kit, according to the manufacturer’s instructions. Barcoded libraries were combined to a final concentration of 100 p.m., and used to prepare Template-Positive Ion Sphere™ (Thermo Fisher Scientific, Waltham, MA) Particles to load on Ion 540™ Chips, using the Ion 540™ Kit-Chef (Thermo Fisher Scientific, Waltham, MA). Sequencing was performed on an Ion S5™ Sequencer with Torrent Suite™ Software v6 (Thermo Fisher Scientific, Waltham, MA). The analyses were performed with a range of fold <−2 and >+2 and a p value <0.05, using Transcriptome Analysis Console Software (version 4.0.1), certified for AmpliSeq analysis (Thermo-Fisher). The transcriptomic data have been deposited as dataset on Mendeley data repository (reference number linking to the repository: Fiorucci, Stefano; Biagioli, Michele; Marchianò, Silvia; Di Giorgio, Cristina (2021), “Discovery of potent dual GPBAR1/CysLT1R modulator for the treatment of metabolic fatty liver disease,” Mendeley Data, V1, doi: 10.17632/6dnrk9fc72.1).
compound,measurement,setting,value
"O=C(O)c1cccc(-c2ccc(OCc3ccc4ccccc4n3)cc2)c1 [Compound 2, 4'-(quinolin-2-ylmethoxy)-[1,1′-biphenyl]-3-carboxylic acid]",Uhrf1 transcript Avg (log2),HFD-F + compound 2,0.79 log2
same,Upp2 transcript Avg (log2),HFD-F + compound 2,9.06 log2
same,Usp2 transcript Avg (log2),HFD-F + compound 2,5.61 log2
same,Wrn transcript Avg (log2),HFD-F + compound 2,3.27 log2
same,Zfp101 transcript Avg (log2),HFD-F + compound 2,1.28 log2
same,Zfp445 transcript Avg (log2),HFD-F + compound 2,6.23 log2
same,1810011O10Rik transcript Fold Change,HFD-F + compound 2 vs HFD-F,-2.01
same,2310001K24Rik transcript Fold Change,HFD-F + compound 2 vs HFD-F,2.31
same,2310039H08Rik transcript Fold Change,HFD-F + compound 2 vs HFD-F,-2.25
same,4833423E24Rik transcript Fold Change,HFD-F + compound 2 vs HFD-F,2.15
same,6430573F11Rik transcript Fold Change,HFD-F + compound 2 vs HFD-F,-2.15
same,AW549542 transcript Fold Change,HFD-F + compound 2 vs HFD-F,2.59
same,Abcb1a transcript Fold Change,HFD-F + compound 2 vs HFD-F,2.07
same,Acod1 transcript Fold Change,HFD-F + compound 2 vs HFD-F,-7.35
same,Acot3 transcript Fold Change,HFD-F + compound 2 vs HFD-F,2.07
same,Adam8 transcript Fold Change,HFD-F + compound 2 vs HFD-F,-2.4
same,Adam11 transcript Fold Change,HFD-F + compound 2 vs HFD-F,2.06
same,Anxa2 transcript Fold Change,HFD-F + compound 2 vs HFD-F,-2.16
same,Apcs transcript Fold Change,HFD-F + compound 2 vs HFD-F,-2.14
same,Arntl transcript Fold Change,HFD-F + compound 2 vs HFD-F,-2.68
same,Arsg transcript Fold Change,HFD-F + compound 2 vs HFD-F,-2.22
same,Atp1a3 transcript Fold Change,HFD-F + compound 2 vs HFD-F,-2.15
same,Aurka transcript Fold Change,HFD-F + compound 2 vs HFD-F,-2.11
same,Avpr1a transcript Fold Change,HFD-F + compound 2 vs HFD-F,-2.31
same,Bcat1 transcript Fold Change,HFD-F + compound 2 vs HFD-F,-2.27
same,C920009B18Rik transcript Fold Change,HFD-F + compound 2 vs HFD-F,-2.05
same,Cabyr transcript Fold Change,HFD-F + compound 2 vs HFD-F,2.35
same,Capn11 transcript Fold Change,HFD-F + compound 2 vs HFD-F,3.56
same,Ccl2 transcript Fold Change,HFD-F + compound 2 vs HFD-F,–9.45
same,Ccl3 transcript Fold Change,HFD-F + compound 2 vs HFD-F,–45.68
same,Ccl4 transcript Fold Change,HFD-F + compound 2 vs HFD-F,-3.76
same,Ccl7 transcript Fold Change,HFD-F + compound 2 vs HFD-F,-5.24
same,Ccl9 transcript Fold Change,HFD-F + compound 2 vs HFD-F,-2.83
same,Cd9 transcript Fold Change,HFD-F + compound 2 vs HFD-F,-2.05
same,Cd14 transcript Fold Change,HFD-F + compound 2 vs HFD-F,-2.38
same,Cd36 transcript Fold Change,HFD-F + compound 2 vs HFD-F,-2.5
same,Cd63 transcript Fold Change,HFD-F + compound 2 vs HFD-F,-2.18
same,Cdk1 transcript Fold Change,HFD-F + compound 2 vs HFD-F,-2.15
same,Cdkl2 transcript Fold Change,HFD-F + compound 2 vs HFD-F,-2.13
same,Cdkn1a transcript Fold Change,HFD-F + compound 2 vs HFD-F,-7.58
same,Cdkn3 transcript Fold Change,HFD-F + compound 2 vs HFD-F,-2.22
same,Ces2b transcript Fold Change,HFD-F + compound 2 vs HFD-F,3.35
same,Cetn4 transcript Fold Change,HFD-F + compound 2 vs HFD-F,2.21
same,Chka transcript Fold Change,HFD-F + compound 2 vs HFD-F,-3.91
same,Chrna4 transcript Fold Change,HFD-F + compound 2 vs HFD-F,-3.1
same,Cidea transcript Fold Change,HFD-F + compound 2 vs HFD-F,-4.55
same,Cidec transcript Fold Change,HFD-F + compound 2 vs HFD-F,-3.63
same,Cirbp transcript Fold Change,HFD-F + compound 2 vs HFD-F,2.31
same,Ckap2 transcript Fold Change,HFD-F + compound 2 vs HFD-F,-2.19
same,Clec4e transcript Fold Change,HFD-F + compound 2 vs HFD-F,-2.29
same,Clec4d transcript Fold Change,HFD-F + compound 2 vs HFD-F,-2.99
same,Col27a1 transcript Fold Change,HFD-F + compound 2 vs HFD-F,3.11
same,Csf3 transcript Fold Change,HFD-F + compound 2 vs HFD-F,-6.94
same,Cxcl2 transcript Fold Change,HFD-F + compound 2 vs HFD-F,–12.23
same,Cyp1a2 transcript Fold Change,HFD-F + compound 2 vs HFD-F,4.77
same,Cyp2a5 transcript Fold Change,HFD-F + compound 2 vs HFD-F,2.79
same,Cyp7a1 transcript Fold Change,HFD-F + compound 2 vs HFD-F,3.98
same,Cyp17a1 transcript Fold Change,HFD-F + compound 2 vs HFD-F,-2.12
same,D17H6S56E-5 transcript Fold Change,HFD-F + compound 2 vs HFD-F,-2.1
same,Dbp transcript Fold Change,HFD-F + compound 2 vs HFD-F,3.21
same,Defb1 transcript Fold Change,HFD-F + compound 2 vs HFD-F,-2.44
same,Derl2 transcript Fold Change,HFD-F + compound 2 vs HFD-F,-2.01
same,Dhrs9 transcript Fold Change,HFD-F + compound 2 vs HFD-F,-2.42
same,Dtx4 transcript Fold Change,HFD-F + compound 2 vs HFD-F,-2.1
same,Dusp8 transcript Fold Change,HFD-F + compound 2 vs HFD-F,-2.11
same,Egr1 transcript Fold Change,HFD-F + compound 2 vs HFD-F,-4.09
same,Ell transcript Fold Change,HFD-F + compound 2 vs HFD-F,2.35
same,Elovl3 transcript Fold Change,HFD-F + compound 2 vs HFD-F,-2.38
same,Elovl5 transcript Fold Change,HFD-F + compound 2 vs HFD-F,-2.41
same,Ephb2 transcript Fold Change,HFD-F + compound 2 vs HFD-F,-2.63
same,Epm2aip1 transcript Fold Change,HFD-F + compound 2 vs HFD-F,-2.65
same,Fam57a transcript Fold Change,HFD-F + compound 2 vs HFD-F,2.55
same,Fgf21 transcript Fold Change,HFD-F + compound 2 vs HFD-F,-6.9
same,Fxyd2 transcript Fold Change,HFD-F + compound 2 vs HFD-F,-2.25
same,Gdf15 transcript Fold Change,HFD-F + compound 2 vs HFD-F,-3.99
same,Glipr1 transcript Fold Change,HFD-F + compound 2 vs HFD-F,-2.13
same,Glipr2 transcript Fold Change,HFD-F + compound 2 vs HFD-F,-2.29
same,Gm16063 transcript Fold Change,HFD-F + compound 2 vs HFD-F,2.05
same,Gm30692 transcript Fold Change,HFD-F + compound 2 vs HFD-F,-2.13
same,Gm31555 transcript Fold Change,HFD-F + compound 2 vs HFD-F,2.49
